Read-outs that look alike come from different tables or passages of the source.
Columns and labels:
[1] = test system: HCV subgenomic replicon RNA of genotype 1b strain N (Huh7/Rep-Feo cells); test: Luciferase assay in HCV subgenomic replicon cell line Huh7/Rep-Feo; format: cell-based, hepatitis C virus; settings: Huh7/Rep-Feo; for EC50: subgenome, read-out: EC50, fifty percent effective concentration based on the inhibition of HCV replication; for EC50 / SI, selectivity index (CC50/EC50): strain N (1b)
Procedure: (§1) The Huh7/Rep-Feo cell line, which harbors the subgenomic replicon RNA composed of HCV IRES, the gene of the fusion protein consisting of neomycin phosphotransferase and firefly luciferase, EMCV IRES and a nonstructural gene of genotype 1b strain N in order in Huh7 cell line, was previously established. Thus, the luciferase activity corresponds to the level of HCV RNA replication. The cell line was maintained in Dulbecco's modified Eagle medium containing 10% fetal calf serum and 0.5 mg/mL G418 and cultured in absence of G418 when they were treated with compounds. The Lunet/Con1LUN Sb #26 cell line, which harbors the subgenomic replicon RNA of the Con1 strain (genotype 1b), was described previously. The OR6 cell line, which harbors the full genomic replicon RNA of the O strain (genotype 1b), was described previously. The HCV replicon cell line derived from the genotype 2a strain JFH1 was described previously. The viral RNA derived from the plasmid pJFH1 was transcribed and introduced into Huh7OK1 cells according to the method of Wakita et al.. The virus was amplified by the several times passages. The cells were infected with the virus at a multiplicity of infection (moi) of 1 and then treated with each compound at 24 h post-infection. The culture supernatants were harvested 72 h post-treatment to estimate the viral RNA as described below.
(§2) The replicon cells were seeded at 2×10^4 cells per well in a 48-well plate 24 h before treatment. […] The resulting cells were harvested 72 h post-treatment and lysed with cell culture lysis reagent (Promega, Madison, WI). The luciferase activity of each cell lysate was estimated using a luciferase assay system (Promega). The resulting luminescence was detected by a Luminescencer-JNR AB-2100 (ATTO, Tokyo, Japan).

[2] = Cytotoxicity (MTS assay) in Huh7/Rep-Feo replicon cells; format: cell-based; settings: human, Huh7/Rep-Feo cells, MTS, read-out: CC50, fifty percent cytotoxicity concentration based on the reduction in cell viability
Procedure: (§3) The replicon cells were seeded at a density of 1×10^4 cells per well in a 96-well plate and then incubated at 37°C for 24 h. […] Cell viability was measured using a dimethylthiazol carboxymethoxy-phenylsulfophenyl tetrazolium (MTS) assay with a CellTiter 96 aqueous one-solution cell proliferation assay kit (Promega).

[3] = test system: Huh7/Rep-Feo cells; test: as above; format: cell-based; settings: Huh7/Rep-Feo cells, 72 h, MTS; read-out: CC50, fifty percent cytotoxicity concentration based on the reduction in cell viability
Procedure: as §3

[4] = test system: ISRE-promoter activity; test: ISRE reporter assay in Huh7 OK1 cells; format: cell-based; settings: 48 h of treatment, interferon alpha 2b as positive control
[5] = test system: HCV NS3; test: Western blotting of NS3 in Huh7/Rep-Feo cells; format: cell-based, hepatitis C virus; settings: Huh7/Rep-Feo cells treated 72 h, dose-dependent
Procedure: Western blotting was carried out by the method described previously. The antibodies to NS3 (clone 8G-2, mousemonoclonal, Abcam, Cambridge, UK), and beta-actin were purchased from Cell Signaling Technology (rabbit polyclonal, Danvers, MA, USA) and were used as the primary antibodies in this study.

[6] = test system: HCV subgenomic replicon RNA of the Con1 strain (genotype 1b); test: Luciferase assay in Con1 LUN Sb #26 replicon cells; format: cell-based, hepatitis C virus
Procedure: as §1, with “The cells were infected with the virus at a multiplicity of infection (moi) of 1 and then treated with each compound at 24 h post-infection. The culture supernatants were harvested 72 h post-treatment to estimate the viral RNA as described below.” left out
(§4) The replicon cells were seeded at 2×10^4 cells per well in a 48-well plate 24 h before treatment. […] The resulting luminescence was detected by a Luminescencer-JNR AB-2100 (ATTO, Tokyo, Japan).

[7] = test system: EMCV or HCV IRES; test: Effect on IRES-dependent translation in transfected Huh7 cells; format: cell-based; settings: 40 µg/ml, 72 h
Procedure: (§5) Huh7 OK1 cells were transfected with pEF.Rluc.HCV.IRES.Feo or pEF.Rluc.EMCV.IRES.Feo [39]. These transfected cells were seeded at 2×10^4 cells per well in a 48-well plate 24 h before treatment, treated with DMSO or compound 10, and then harvested at 72 h post-treatment. The firefly luciferase activities were measured with a luciferase assay system (Promega). The total protein concentration was measured using the BCA Protein Assay Reagent Kit (Thermo Scientific, Rockford, IL, USA) to normalize luciferase activity. To evaluate the interferon response, Huh7OK1 cells were seeded on a 48 well plate at a density of 2×10^4 cells per well, and transfected with pISRE-TA-Luc (Takara bio, Shiga, Japan) and phRG-TK (Promega). These transfected cells were incubated in the presence of compounds, IFN-α 2b, or DMSO, and then harvested at 48 h post-treatment. The firefly luciferase and Renilla luciferase activities were quantified by using Dual luciferase reporter assay system (Promega).

[8] = test system: HCVcc derived from JFH-1 strain; test: HCVcc virus production in Huh7 OK1 cells (supernatant viral RNA by qRT-PCR); format: cell-based; settings: Hepatitis C virus, 24 h, read-out: EC50 of HCV viral production
Procedure: as §1, with “below. […]” for “below.”

[9] = test system: HCV full genomic replicon RNA of the O strain (genotype 1b); test: Luciferase assay in OR6 full genome replicon cells; format: cell-based, hepatitis C virus
Procedure: as §1, with “The cells were infected with the virus at a multiplicity of infection (moi) of 1 and then treated with each compound at 24 h post-infection. The culture supernatants were harvested 72 h post-treatment to estimate the viral RNA as described below.” left out
as §4

[10] = test system: HCV subgenomic replicon of genotype 2a strain JFH1; test: Luciferase assay in genotype 2a JFH1 replicon cells; format: cell-based, hepatitis C virus; settings: Huh7 Rep/Reo-2a, JFH1 (2a)
Procedure: as §1, with “The cells were infected with the virus at a multiplicity of infection (moi) of 1 and then treated with each compound at 24 h post-infection. The culture supernatants were harvested 72 h post-treatment to estimate the viral RNA as described below.” left out
as §4

[11] = test system: firefly and Renilla luciferases; test: Effect on firefly and Renilla luciferase activities in transfected Huh7 cells; format: cell-based; settings: 40 µg/ml, 72 h
Procedure: as §5

[12] = test system: HCV subgenomic replicon RNA of genotype 1b strain Con1; test: Drug combination analysis (CalcuSyn) in Con1 LUN Sb #26 replicon cells; format: cell-based, hepatitis C virus; settings: 72 h; for effect of combination with compound 10 on inhibition of HCV replication (combination index at EC50, EC75, EC90): CI <0.9 synergy, 0.9 to 1.1 additivity, >1.1 antagonism; for isobologram: location of calculated EC90 plots for combination with compound 10: under additive line = synergy, above = antagonism
Procedure: as §2
The effects of drug-drug combinations were evaluated by using the Con1 LUN Sb #26 replicon cells, and were analyzed by using the computer software CalcuSyn (Biosoft, Cambridge, United Kingdom). Dose inhibition curves of two different drugs were plotted with each other. In each drug combination, EC90 values of several combinations of two different drugs were plotted as the fractional concentration (FC) of both drugs on the x and y-axes. Additivity indicates the line linked between 1.0 FC value points of both drugs in the absence of each other. Synergy and antagonism are indicated by values plotted under and above, respectively, an additivity line. The explanatory diagram of isobologram is shown in a right end of lower panels of Figure 5A. Combination indexes (CIs) were calculated at the EC50, EC75, and EC90 by using CalcuSyn. A CI value of less than 0.9 indicates synergy. A CI value ranging from 0.9 to 1.1 indicates additivity. A CI value of more than 1.1 indicates antagonism. The explanatory diagram was shown in a right end of lower panels of Figure 5B.

O=C(O)/C=C/c1ccc(O)c(O)c1 [Compound 2, caffeic acid]
EC50 ([1]; Hepatitis C virus, Huh-7, 72 h): 36.6 ± 6.7 µM | SI, selectivity index (CC50/EC50) [1]: >8.7 | CC50 at 72 h ([2]; Huh7/Rep-Feo replicon cells): > 320 µM

COc1cc(/C=C/C(=O)O)ccc1O [Compound 3, ferulic acid]
EC50 ([1]; 72 h): 71.9 ± 5.8 µM | CC50 [3]: > 320 µM

O=C(C=Cc1ccccc1)OCCc1ccccc1 [Compound 4, Cinnamic acid phenethyl ester]
EC50 ([1]; 72 h): 86.1 ± 6.3 µM | CC50 [3]: > 320 µM

O=C(/C=C/c1ccc(O)c(O)c1)O[C@@H]1C[C@](O)(C(=O)O)C[C@@H](O)[C@H]1O [Compound 5, chlorogenic acid]
EC50 ([1]; Hepatitis C virus, Huh-7, 72 h): 103 ± 3.4 µM | SI, selectivity index (CC50/EC50) [1]: >3.1 | CC50 at 72 h ([2]; Huh7/Rep-Feo replicon cells): > 320 µM

O=C(/C=C/c1ccc(O)c(O)c1)O[C@H](Cc1ccc(O)c(O)c1)C(=O)O [Compound 6, Rosmarinic acid]
EC50 ([1]; Hepatitis C virus, Huh-7, 72 h): 110 ± 1.1 µM | SI, selectivity index (CC50/EC50) [1]: >2.9 | effect on ISRE-promoter activities [4]: no significant effects | CC50 at 72 h [2]: > 320 µM

COC(=O)/C=C/c1ccc(O)c(O)c1 [Compound 7, caffeic acid methyl ester]
EC50 ([1]; 72 h): 28.6 ± 1.2 µM | CC50 [3]: 122 ± 5 µM

CCCCCCCCOC(=O)/C=C/c1ccc(O)c(O)c1 [Compound 10, Caffeic acid n-octyl ester]
EC50 ([1]; Hepatitis C virus, Huh-7, 72 h): 2.7 ± 0.1 µM | SI, selectivity index (CC50/EC50) [1]: 26.6 | HCV RNA replication (luciferase activity) ([1]; various concentrations (compound 1: 1.3 to 40 µM), 72 h, dose-dependent): reduced | NS3 protein level [5]: reduced | SI, selectivity index (CC50/EC50) ([6]; Con1 LUN Sb #26, Con1 (1b)): 63.1 | EC50 ([6]; Hepatitis C virus, Con1 LUN Sb #26, subgenome, Con1 (1b), 72 h, read-out: EC50, fifty percent effective concentration based on the inhibition of HCV replication): 1 ± 0.1 µM | IRES-dependent translation [7]: not effect | effect on ISRE-promoter activities [4]: no significant effects | EC50 [8]: 1.8 ± 0.4 µM | EC50 ([9]; Hepatitis C virus, OR6, full genome, O (1b), 72 h, read-out: EC50, fifty percent effective concentration based on the inhibition of HCV replication): 1.5 ± 0.4 µM | SI, selectivity index (CC50/EC50) ([9]; OR6, O (1b)): 41.1 | EC50 ([10]; Hepatitis C virus, Huh-7, subgenome, 72 h, read-out: EC50, fifty percent effective concentration based on the inhibition of HCV replication): 1 ± 0.3 µM | SI, selectivity index (CC50/EC50) [10]: 60.0 | CC50 at 72 h ([2]; Huh7/Rep-Feo replicon cells): 71.7 ± 8.5 µM | enzymatic activities of firefly and Renilla luciferases [11]: not effect

COC(=O)CCc1ccc(O)c(O)c1 [Compound 12, Dihydrocaffeic acid methyl ester]
EC50 ([1]; 72 h): 77 ± 1.6 µM | CC50 [3]: 141 ± 3.4 µM

CCCCCCCCOC(=O)/C=C/c1ccc(O)c(OC)c1 [Compound 13, 3-O-methylcaffeic acid n-octyl ester]
EC50 ([1]; Hepatitis C virus, Huh-7, 72 h): 10.2 ± 1.1 µM | SI, selectivity index (CC50/EC50) [1]: 5.9 | CC50 at 72 h ([2]; Huh7/Rep-Feo replicon cells): 60.3 ± 1.6 µM

CCCCCCCCOC(=O)/C=C/c1ccc(OC)c(O)c1 [Compound 14, 4-O-methylcaffeic acid n-octyl ester]
EC50 ([1]; Hepatitis C virus, Huh-7, 72 h): 19.6 ± 0.8 µM | SI, selectivity index (CC50/EC50) [1]: 3 | CC50 at 72 h ([2]; Huh7/Rep-Feo replicon cells): 59.2 ± 1.4 µM

CCCCCCCCOC(=O)C=Cc1cc(O)c(O)c(O)c1 [Compound 16, 3,4,5-Trihydroxycinnamic acid n-octyl ester]
EC50 ([1]; Hepatitis C virus, Huh-7, 72 h): 36.3 ± 2.9 µM | SI, selectivity index (CC50/EC50) [1]: 1.6 | CC50 at 72 h ([2]; Huh7/Rep-Feo replicon cells): 59.8 ± 6.9 µM

CC(C)(C)C#Cc1cc(N(C(=O)[C@H]2CC[C@H](C)CC2)[C@H]2CC[C@H](O)CC2)c(C(=O)O)s1 [VX-222]
effect of combination with compound 10 on inhibition of HCV replication (combination index at EC50, EC75, EC90) [12]: additive to synergistic effect | isobologram: location of calculated EC90 plots for combination with compound 10 [12]: under the additive line

COC(=O)N[C@H](C(=O)N1CCC[C@H]1c1nc(-c2ccc(-c3ccc(-c4c[nH]c([C@@H]5CCCN5C(=O)[C@@H](NC(=O)OC)C(C)C)n4)cc3)cc2)c[nH]1)C(C)C [daclatasvir]
effect of combination with compound 10 on inhibition of HCV replication (combination index at EC50, EC75, EC90) [12]: strong synergistic effect | isobologram: location of calculated EC90 plots for combination with compound 10 [12]: under the additive line

CC(C)(C)OC(=O)N[C@H]1CCCCC/C=C\[C@@H]2C[C@@]2(C(=O)NS(=O)(=O)C2CC2)NC(=O)[C@@H]2C[C@@H](OC(=O)N3Cc4cccc(F)c4C3)CN2C1=O [danoprevir]
effect of combination with compound 10 on inhibition of HCV replication (combination index at EC50, EC75, EC90) [12]: antagonistic to additive effect | isobologram: location of calculated EC90 plots for combination with compound 10 [12]: above the additive line

CCC[C@H](NC(=O)[C@@H]1[C@H]2CCC[C@H]2CN1C(=O)[C@@H](NC(=O)[C@@H](NC(=O)c1cnccn1)C1CCCCC1)C(C)(C)C)C(=O)C(=O)NC1CC1 [telaprevir]
effect of combination with compound 10 on inhibition of HCV replication (combination index at EC50, EC75, EC90) [12]: antagonistic effect | isobologram: location of calculated EC90 plots for combination with compound 10 [12]: above the additive line

Reference: publication PMC3866116 (PLoS ONE, 2013)
